Here are results for 3 compounds from patent publication US10888090B2, “Plant growth promoters and methods of using them” (KING ABDULLAH UNIVERSITY OF SCIENCE AND TECHNOLOGY, priority 2015, dated 2021).

Experiment [1] can be described thus: Greenhouse experiments. In kind it is in vivo.
In experiment [2] the test system is rice seedlings (cultivar 'Dongjin'). The experiment in a line: Rice seedlings grown hydroponically with the compound: crown roots and biomass. In kind it is in vivo. As to conditions: hydroponic. Here is the method:
FIG. 10: 3-OH-β-apo-13-Carotenone treatment increases the number of crown roots in rice. Seeds of cultivar ‘Dongjin’ were pre-germinated in water for 2 days followed by transfer to filter papers placed in petri dishes containing half-strength liquid Murashige and Skoog (MS) medium. The cultures were incubated at 24° C. for one week. Thereafter, the seedlings were grown hydroponically in half-strength modified Hoagland nutrient solution containing different concentrations of 3-OH-β-apo-13-carotenone for 2 weeks in the greenhouse. The medium was changed twice a week, data were recorded 2 weeks after treatment. (FIG. 10A) Number of crown roots of rice seedlings 2 weeks after treatment. Each value represents the mean of 10 seedlings. Error bar indicates standard error. Asterisks denote a significant difference from the mock treatment by student t-test (* P<0.05; ** P<0.01). FIG. 11: Root and shoot biomass of rice seedlings treated with 3-OH-β-apo-13-Carotenone. One week-old seedlings of cultivar ‘Dongjin’ were grown hydroponically in half-strength modified Hoagland nutrient solution containing different concentrations of 3-OH-β-apo-13-Carotenone for two weeks in the greenhouse. The medium was changed twice a week. After two weeks, roots and shoots were collected separately and dried in an incubator at 80° C. for 3 days. Dried samples were weighed using a Mettler Toledo balance. […]

Experiment [3] relates to Arabidopsis. The experiment can be described thus: Number of lateral roots in Arabidopsis (14 days old plants). It is filed as in vivo. Here is the method:
FIG. 14: 3-OH-β-apo-13-Carotenone treatment of Arabidopsis increases the number of lateral roots in a concentration-dependent manner (14 days old plants). 0-5 μM corresponds to different concentrations of synthetic 3-OH-β-apo-13-Carotenone. Puri corresponds to synthetic 3-OH-β-apo-13-Carotenone after HPLC purification. […] Therefore, we tested whether β-apo-13-carotenone can also induce adventitious root formation in the model plant Arabidopsis thaliana. As shown in FIGS. 12A and 12B, the compound exerted a clear induction on the number of hypocotyl-derived adventitious roots that usually arise spontaneously after dark-light transition. Highest activity—around 50% increase, was obtained with 2.5 μM concentrations (FIGS. 12A and 12B). […] To ensure that the biological activity observed is caused by 3-OH-β-apo-13-carotenone and not by a possible contamination with a different compound that may be included during the organic synthesis, HPLC was used to isolate highly pure 3-OH-β-apo-13-carotenone, and the purified compound was applied.

The subject of experiment [4] is Arabidopsis (col-0) seedlings. The experiment can be described thus: Hypocotyl-derived adventitious root formation in Arabidopsis seedlings. It is filed as in vivo, Arabidopsis thaliana. As to conditions: 2.5 μM; arising after dark-light transition. The text has this: FIG. 12A: 3-OH-β-apo-13-Carotenone treatment increases the number of hypocotyl-derived adventitious roots in a concentration-dependent manner (14 days old plants). For a better resolution, see FIG. 12B. FIG. 12B: 3-OH-β-apo-13-Carotenone treatment increases the number of hypocotyl-derived adventitious roots. (A) 4-day-old Arabidopsis (col-0) seedlings were transferred to 3-OH-β-apo-13-Carotenone containing plates at the indicated concentrations and grown for 10 days. Red arrows indicate adventitious roots on hypocotyl (B) Average number of adventitious roots. Seeds were germinated on 1 MS medium with 0.5% sucrose (pH 5.7) and grown for 4 days in the dark. Error bars represent means±S.E. Asterisks indicate significant differences as calculated using a standard Student's t-test (*P<0.005, ** <0.001). […] Therefore, we tested whether β-apo-13-carotenone can also induce adventitious root formation in the model plant Arabidopsis thaliana. As shown in FIGS. 12A and 12B, the compound exerted a clear induction on the number of hypocotyl-derived adventitious roots that usually arise spontaneously after dark-light transition. Highest activity—around 50% increase, was obtained with 2.5 μM concentrations (FIGS. 12A and 12B).

Experiment [5] relates to Arabidopsis (Col-0). The experiment can be described thus: Primary root length in Arabidopsis. In kind it is in vivo. Conditions: 2.5 μM, 9 days. Here is the method:
FIG. 16: 3-OH-β-apo-13-Carotenone treatment of Arabidopsis increases the length of primary root. Arabidopsis (Col-0) seeds were germinated on/MS-plates (with 0.5% sucrose) containing 3-OH-β-apo-13-carotenone and grown in 16 light/8 dark period, 22° C. for 9 days. *P<0.05; Student's t-test; **P<0.05; Student's t test. 3-OH-β-apo-13-carotenone was applied at 2.5 μM concentration. Also investigated was the effect of the compound on primary root length.

For experiment [6], the system named is Arabidopsis (Col-0). The experiment can be described thus: Lateral root density in Arabidopsis, single and combined treatment with auxin. In kind it is in vivo. Conditions: 3-OH-β-apo-13-carotenone 2.5 μM, auxin 100 nM; 9 days. The protocol: FIG. 15: Combined 3-OH-β-apo-13-Carotenone and auxin treatment of Arabidopsis has a synergetic effect on lateral root density. 3-OH-β-apo-13-carotenone and auxin (indole-3-acetic acid) were applied at 2.5 μM and 100 nM, concentrations, respectively. Arabidopsis (Col-0) seeds were germinated in/MS-plates (with 0.5% sucrose) containing individual and both compounds together and grown in 16 light/8 dark period, 22° C. for 9 days. Graph represents both actual density and in percentage. *P<0.05; Student's t test; **P<0.05; Student's t test. Also investigated was possible effect of combining 3-OH-β-apo-13-carotenone with auxin.

Experiment [7] relates to Leaf explants of 12-day-old seedlings. The experiment in a line: Leaf-derived adventitious roots (leaf explants of 12-day-old seedlings). In kind it is in vivo, Arabidopsis thaliana. The text has this: FIG. 13: 3-OH-β-apo-13-Carotenone treatment increases the number of leaf-derived adventitious roots (Leaf explants of 12-day-old seedlings). […] Therefore, we tested whether β-apo-13-carotenone can also induce adventitious root formation in the model plant Arabidopsis thaliana. As shown in FIGS. 12A and 12B, the compound exerted a clear induction on the number of hypocotyl-derived adventitious roots that usually arise spontaneously after dark-light transition. Highest activity—around 50% increase, was obtained with 2.5 μM concentrations (FIGS. 12A and 12B).

The test system of experiment [8] is root hairs. Conditions: at high concentration; cited from earlier work.

Turning to `CC(=O)/C=C/C=C(C)/C=C/C1=C(C)CC(O)CC1(C)C` (stereo not drawn) [3-OH-β-apo-13-carotenone], the “growth and flowering in greenhouse experiments” value in experiment [1] is “growth-promoting effects and early flowering”. The “number of crown roots” value in experiment [2] (micromolar concentrations, 2 weeks after treatment) is given as “obvious increase in the number of crown roots”. Besides, in experiment [2] (two weeks, dried samples), the “increase in root and shoot biomass” value is given as “around 30%”. Moreover, the “number of lateral roots” value in experiment [3] (2.5 μM, synthetic compound) is given as “clearly increased the number of lateral roots”. Moreover, in experiment [3] (compound after HPLC purification), the lateral root number result was “increase in lateral root number was detected similar to that observed before”. Moreover, in experiment [4], the “increase in number of hypocotyl-derived adventitious roots (highest activity)” value is “around 50%”. Also, the primary root length result in experiment [5] is on record as “small but significant increase”. The “increase in lateral root density, single treatment” value in experiment [6] is “around 20%”. Moreover, the “number of leaf-derived adventitious roots” value in experiment [7] was “noticeable increase (duplication)”.
Turning to `O=C(O)Cc1c[nH]c2ccccc12` [auxin, indole-3-acetic acid, reference compound], the “increase in lateral root density, single treatment” value in experiment [6] was ~30%.
As for `CC(=O)/C=C/C=C(C)/C=C/C1=C(C)CCCC1(C)C` [d'orenone, β-apo-13-carotenone], in experiment [8], the “tip growth of root hairs” value was “block tip growth of root hairs”.
